# Measured values reported in patent US20080227638A1, “Use of abscisic acid to enhance growth control” (priority 2007, published 2008).
# Key:
# Type in all cases: in vivo
# [1] = test system: tomato (variety: Rutgers); experiment: Tomato plant height, growth rate and leaf number (Example 9); conditions: for Leaf number: 15 days after treatment
# Source text: (§1) Tomato (variety: Rutgers) seeds were sown in 18-cell flat filled with Promix PGX (available from Premier Horticulture Inc. Quakertown, Pa.) and grown for 3 weeks to allow for germination and initial growth. Plants were then transplanted into pots (18 cm in diameter and 18 cm in height), filled with Promix BX (available from Premier Horticulture Inc. Quakertown, Pa.), and grown for one week before the chemical treatment. Plants received daily irrigation and weekly fertilizer (1 g/L all purpose fertilizer 20-20-20, available from The Scotts Company, Marysville, Ohio).
# (§2) During the chemical treatment, a 15 mL (2.5 mL/plant) solution was foliar sprayed on the tomato canopy. Leaf transpiration rates were measured using a LI-1600 Steady State Porometer (LI-Cor, Lincoln, Nebr.) at 1, 2, 3, 4, 7, 10 and 15 days after treatment. Leaf transpiration rate was normalized to the percentage of control plant to minimize the experimental errors caused by environmental factors. Plant height was measured at 0, 2, 4, 7, 10 and 15 days after treatment. Growth rate was calculated based on the changes of plant height in certain intervals. The plants were harvested and the leaf number was counted at 15 days after treatment.
# [2] = test system: creeping bentgrass; experiment: Golf course green creeping bentgrass height, ABA and trinexapac-ethyl (Example 4)
# Protocol: (§3) Field studies were conducted at the nursery green or the practice green at Countryside golf course (Mundelein, Ill.). Both greens were sand based and growing Penncross creeping bentgrass. Grass was managed with typical Illinois golf course management practices.
# (§4) Chemical solutions were prepared with distilled water. Tween 20 (0.05% v/v) was used as an, adjuvant. Both trinexapac-ethyl (commercial product Primo Maxx, 11.3% active ingredient) and paclobutrazol (commercial product Trimmit 2SC, 22.3% active ingredient) were purchased from Syngenta Crop Protection Inc. (Greensboro, N.C.). Uniconazole-P (commercial product Sumagic, 0.55% active ingredient) was obtained from Valent U.S.A. Corporation (Walnut Creek, Calif.).
# (§5) When treated with paclobutrazol or uniconazole-P, turfgrass received irrigation within 24 hours after application to flush chemicals to the root zone. After treatment, turfgrasses were arranged in a randomized complete block experimental design. Turfgrass quality, turfgrass height or clip fresh weight was measured on assigned dates. Turfgrass quality was visually rated on a 0-9 scale based on the color, uniformity and density of the grass with 0 as the worst and 9 as the best. Turfgrass height was measured as the distance between canopy surface and soil. Clips were collected from each plot; all plots were cut to a uniform height.
# (§6) All experiments were randomized complete block experimental design. Data were analyzed by analysis of variance. Duncan's new multiple range tests at α=0.05 were used for mean separations.
# (§7) Tween 20 (0.05% w/v) was included as an adjuvant.
# [3] = test system: creeping bentgrass green; experiment: Soil moisture of creeping bentgrass green, ABA and trinexapac-ethyl (Example 8); conditions: 25 ppm trinexapac-ethyl
# Protocol: as §3, §4, §5, §6, §7
# [4] = test system: tomato (variety: Rutgers); experiment: Tomato leaf transpiration, porometer (Example 9)
# Source text: as §1, §2
# [5] = test system: Kentucky bluegrass; experiment: Greenhouse Kentucky bluegrass height and quality, ABA and trinexapac-ethyl (Example 1); conditions: for Quality: visual 0-9 scale
# Protocol: Greenhouse studies were conducted at the Research Farm of Valent BioSciences Corporation (Long Grove, Ill.). Grasses were grown in pots (18 cm in diameter and 18 cm in height) filled with Promix BX (available from Premier Horticulture Inc. Quakertown, Pa.). Grass was irrigated daily by an overhead irrigation system. The irrigation system was set up with multiple Tornado Mist Spray Heads (10 GPH at 40 PSI-Wetted diameter, NDS/Raindrip, Woodland Hills, Calif.). Spray heads were 1-meter apart from each other and 75 cm above grass canopy. Grass was cut with a scissor at 2.5 cm height and fertilizer (1 g/L all purpose fertilizer 20-20-20, available from The Scotts Company, Marysville, Ohio) was applied once per week.
# as §4, §5, §6
# Kentucky bluegrass sod (unknown variety) was purchased from Deak sod farms, Inc. (Union Grove, Wis.). Grass was grown in the greenhouse in pots (n=6 pots per treatment) for establishment before treatment. […] Tween 20 (0.05% w/v) was included as an adjuvant. Turfgrass canopy was not cut during the experimental period.
# [6] = 250 ppm trinexapac-ethyl, day 2 after treatment
# [7] = 250 ppm trinexapac-ethyl, day 4 after treatment
# [8] = 250 ppm trinexapac-ethyl, day 7 after treatment
# [9] = 250 ppm trinexapac-ethyl, day 10 after treatment
# [10] = 250 ppm trinexapac-ethyl, day 15 after treatment
# [11] = 500 ppm trinexapac-ethyl, day 2 after treatment
# [12] = 500 ppm trinexapac-ethyl, day 4 after treatment
# [13] = 500 ppm trinexapac-ethyl, day 7 after treatment
# [14] = 500 ppm trinexapac-ethyl, day 10 after treatment
# [15] = 500 ppm trinexapac-ethyl, day 15 after treatment
# [16] = 1000 ppm trinexapac-ethyl, day 2 after treatment
# [17] = 1000 ppm trinexapac-ethyl, day 4 after treatment
# [18] = 1000 ppm trinexapac-ethyl, day 7 after treatment
# [19] = 1000 ppm trinexapac-ethyl, day 10 after treatment
# [20] = 1000 ppm trinexapac-ethyl, day 15 after treatment
# [21] = 2000 ppm trinexapac-ethyl, day 2 after treatment
# [22] = 2000 ppm trinexapac-ethyl, day 4 after treatment
# [23] = 2000 ppm trinexapac-ethyl, day 7 after treatment
# [24] = 2000 ppm trinexapac-ethyl, day 10 after treatment
# [25] = 2000 ppm trinexapac-ethyl, day 15 after treatment
# [26] = 40 ppm trinexapac-ethyl, 23 days after treatment
# [27] = 80 ppm trinexapac-ethyl, 23 days after treatment
# [28] = 160 ppm trinexapac-ethyl, 23 days after treatment
structure (smiles),measurement,setting,value
CCOC(=O)C1CC(=O)C(=C(O)C2CC2)C(=O)C1 (stereo not shown) [trinexapac-ethyl],Leaf number,[1]; 250 ppm trinexapac-ethyl,12.0
same,Plant height,"[1]; 250 ppm trinexapac-ethyl, day 0 after treatment",10.3 cm
same,Growth rate,[1]; [6],1.7 cm/day
same,Plant height,[1]; [6],13.6 cm
same,Growth rate,[1]; [7],1.5 cm/day
same,Plant height,[1]; [7],16.4 cm
same,Growth rate,[1]; [8],2.6 cm/day
same,Plant height,[1]; [8],28.7 cm
same,Growth rate,[1]; [9],2.2 cm/day
same,Plant height,[1]; [9],32.3 cm
same,Growth rate,[1]; [10],2.7 cm/day
same,Plant height,[1]; [10],50.6 cm
same,Leaf number,[1]; 500 ppm trinexapac-ethyl,11.7
same,Plant height,"[1]; 500 ppm trinexapac-ethyl, day 0 after treatment",9.8 cm
same,Growth rate,[1]; [11],1.7 cm/day
same,Plant height,[1]; [11],13.1 cm
same,Growth rate,[1]; [12],1.5 cm/day
same,Plant height,[1]; [12],15.9 cm
same,Growth rate,[1]; [13],2.6 cm/day
same,Plant height,[1]; [13],28.3 cm
same,Growth rate,[1]; [14],2.2 cm/day
same,Plant height,[1]; [14],31.2 cm
same,Growth rate,[1]; [15],2.6 cm/day
same,Plant height,[1]; [15],50.7 cm
same,Leaf number,[1]; 1000 ppm trinexapac-ethyl,11.7
same,Plant height,"[1]; 1000 ppm trinexapac-ethyl, day 0 after treatment",10.0 cm
same,Growth rate,[1]; [16],1.2 cm/day
same,Plant height,[1]; [16],12.3 cm
same,Growth rate,[1]; [17],1.4 cm/day
same,Plant height,[1]; [17],15.4 cm
same,Growth rate,[1]; [18],2.4 cm/day
same,Plant height,[1]; [18],26.7 cm
same,Growth rate,[1]; [19],2.1 cm/day
same,Plant height,[1]; [19],31.3 cm
same,Growth rate,[1]; [20],2.8 cm/day
same,Plant height,[1]; [20],52.7 cm
same,Leaf number,[1]; 2000 ppm trinexapac-ethyl,11.5
same,Plant height,"[1]; 2000 ppm trinexapac-ethyl, day 0 after treatment",9.9 cm
same,Growth rate,[1]; [21],1.2 cm/day
same,Plant height,[1]; [21],12.2 cm
same,Growth rate,[1]; [22],1.5 cm/day
same,Plant height,[1]; [22],15.8 cm
same,Growth rate,[1]; [23],2.0 cm/day
same,Plant height,[1]; [23],23.9 cm
same,Growth rate,[1]; [24],2.0 cm/day
same,Plant height,[1]; [24],29.3 cm
same,Growth rate,[1]; [25],2.7 cm/day
same,Plant height,[1]; [25],50.6 cm
same,Turfgrass height,"[2]; 12.5 ppm trinexapac-ethyl, 7 days after treatment",6.0 cm
same,Turfgrass height,"[2]; 12.5 ppm trinexapac-ethyl, 14 days after treatment",8.5 cm
same,Turfgrass height,"[2]; 50 ppm trinexapac-ethyl, 7 days after treatment",4.3 cm
same,Turfgrass height,"[2]; 50 ppm trinexapac-ethyl, 14 days after treatment",5.5 cm
same,Soil moisture,[3]; 2 days after treatment,11.2%
same,Soil moisture,[3]; 7 days after treatment,12.7%
same,Transpiration,"[4]; 250 ppm trinexapac-ethyl, day 1 after treatment",91 % of control
same,Transpiration,[4]; [6],99 % of control
same,Transpiration,"[4]; 250 ppm trinexapac-ethyl, day 3 after treatment",91 % of control
same,Transpiration,[4]; [7],95 % of control
same,Transpiration,[4]; [8],100 % of control
same,Transpiration,[4]; [9],98 % of control
same,Transpiration,[4]; [10],98 % of control
same,Transpiration,"[4]; 500 ppm trinexapac-ethyl, day 1 after treatment",91 % of control
same,Transpiration,[4]; [11],95 % of control
same,Transpiration,"[4]; 500 ppm trinexapac-ethyl, day 3 after treatment",89 % of control
same,Transpiration,[4]; [12],96 % of control
same,Transpiration,[4]; [13],100 % of control
same,Transpiration,[4]; [14],99 % of control
same,Transpiration,[4]; [15],100 % of control
same,Transpiration,"[4]; 1000 ppm trinexapac-ethyl, day 1 after treatment",92 % of control
same,Transpiration,[4]; [16],96 % of control
same,Transpiration,"[4]; 1000 ppm trinexapac-ethyl, day 3 after treatment",91 % of control
same,Transpiration,[4]; [17],98 % of control
same,Transpiration,[4]; [18],100 % of control
same,Transpiration,[4]; [19],103 % of control
same,Transpiration,[4]; [20],99 % of control
same,Transpiration,"[4]; 2000 ppm trinexapac-ethyl, day 1 after treatment",95 % of control
same,Transpiration,[4]; [21],94 % of control
same,Transpiration,"[4]; 2000 ppm trinexapac-ethyl, day 3 after treatment",90 % of control
same,Transpiration,[4]; [22],98 % of control
same,Transpiration,[4]; [23],97 % of control
same,Transpiration,[4]; [24],99 % of control
same,Transpiration,[4]; [25],98 % of control
same,Turfgrass height,"[5]; 40 ppm trinexapac-ethyl, 7 days after treatment",9.5 cm
same,Turfgrass height,[5]; [26],18.0 cm
same,Quality,[5]; [26],7.8
same,Turfgrass height,"[5]; 80 ppm trinexapac-ethyl, 7 days after treatment",7.4 cm
same,Turfgrass height,[5]; [27],17.3 cm
same,Quality,[5]; [27],8.0
same,Turfgrass height,"[5]; 160 ppm trinexapac-ethyl, 7 days after treatment",6.1 cm
same,Turfgrass height,[5]; [28],13.3 cm
same,Quality,[5]; [28],7.0
